In US9809578B2, “Pyrazolyl urea, thiourea, guanidine and cyanoguanidine compounds as trkA kinase inhibitors” (Array BioPharma Inc., priority 2012, dated 2017):

Legend:
Assay type in all cases: biochemical
Conditions in all cases: 10 μM, ATP near Km
TEC Activated = target: T1, TEC Activated (Homo sapiens, UniProt P42680); assay: KinaseProfiler TEC Activated
T1 construct: purchased Millipore, Inc. (KinaseProfiler service)
From the text: (§1) The compound was run in duplicate at a concentration of ATP near the Km for each individual kinase according to Millipore's specifications.

Ron = target: T2, Ron (Homo sapiens, UniProt Q04912); assay: KinaseProfiler Ron
T2 construct: purchased Millipore, Inc. (KinaseProfiler service)
From the text: as §1

MKK7beta = target: T3, MKK7beta (Homo sapiens, UniProt O14733); assay: KinaseProfiler MKK7beta
T3 construct: purchased Millipore, Inc. (KinaseProfiler service)
From the text: as §1

SRPK2 = target: T4, SRPK2 (Homo sapiens, UniProt P78362); assay: KinaseProfiler SRPK2
T4 construct: purchased Millipore, Inc. (KinaseProfiler service)
From the text: as §1

MAPKAP-K5 = target: T5, MAPKAP-K5 (Homo sapiens, UniProt Q8IW41); assay: KinaseProfiler MAPKAP-K5
T5 construct: purchased Millipore, Inc. (KinaseProfiler service)
From the text: as §1

CDK3/cyclinE = target: T6, CDK3/cyclinE (Homo sapiens, UniProt Q00526); assay: KinaseProfiler CDK3/cyclinE
T6 construct: purchased Millipore, Inc. (KinaseProfiler service)
From the text: as §1

eEF-2K = target: T7, eEF-2K (Homo sapiens, UniProt O00418); assay: KinaseProfiler eEF-2K
T7 construct: purchased Millipore, Inc. (KinaseProfiler service)
From the text: as §1

GSK3beta = target: T8, GSK3beta (Homo sapiens, UniProt P49841); assay: KinaseProfiler GSK3beta
T8 construct: purchased Millipore, Inc. (KinaseProfiler service)
From the text: as §1

Plk3 = target: T9, Plk3 (Homo sapiens, UniProt Q9H4B4); assay: KinaseProfiler Plk3
T9 construct: purchased Millipore, Inc. (KinaseProfiler service)
T9 sequence (Q9H4B4 whole entry): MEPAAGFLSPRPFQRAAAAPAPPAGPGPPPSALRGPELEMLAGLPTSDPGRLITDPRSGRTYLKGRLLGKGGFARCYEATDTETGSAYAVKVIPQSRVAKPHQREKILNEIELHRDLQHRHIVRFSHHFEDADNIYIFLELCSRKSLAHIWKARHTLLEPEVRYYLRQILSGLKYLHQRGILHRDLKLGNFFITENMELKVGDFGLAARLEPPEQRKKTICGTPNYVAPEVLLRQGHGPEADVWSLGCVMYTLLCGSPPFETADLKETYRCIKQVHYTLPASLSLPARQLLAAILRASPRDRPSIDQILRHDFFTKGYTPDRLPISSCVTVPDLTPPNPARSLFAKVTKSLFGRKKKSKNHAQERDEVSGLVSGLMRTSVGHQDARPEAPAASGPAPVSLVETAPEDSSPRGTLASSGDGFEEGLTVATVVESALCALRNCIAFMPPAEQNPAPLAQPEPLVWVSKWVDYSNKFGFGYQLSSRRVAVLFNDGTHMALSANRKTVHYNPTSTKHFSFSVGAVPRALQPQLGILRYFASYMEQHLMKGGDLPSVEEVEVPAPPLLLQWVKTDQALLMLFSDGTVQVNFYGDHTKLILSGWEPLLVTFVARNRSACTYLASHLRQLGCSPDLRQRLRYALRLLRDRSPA
From the text: as §1

CK2 = target: T10, CK2 (Homo sapiens, UniProt P68400); assay: KinaseProfiler CK2
T10 construct: purchased Millipore, Inc. (KinaseProfiler service)
From the text: as §1

ERK1 = target: T11, ERK1 (Homo sapiens, UniProt P27361); assay: KinaseProfiler ERK1
T11 construct: purchased Millipore, Inc. (KinaseProfiler service)
T11 sequence (P27361 whole entry): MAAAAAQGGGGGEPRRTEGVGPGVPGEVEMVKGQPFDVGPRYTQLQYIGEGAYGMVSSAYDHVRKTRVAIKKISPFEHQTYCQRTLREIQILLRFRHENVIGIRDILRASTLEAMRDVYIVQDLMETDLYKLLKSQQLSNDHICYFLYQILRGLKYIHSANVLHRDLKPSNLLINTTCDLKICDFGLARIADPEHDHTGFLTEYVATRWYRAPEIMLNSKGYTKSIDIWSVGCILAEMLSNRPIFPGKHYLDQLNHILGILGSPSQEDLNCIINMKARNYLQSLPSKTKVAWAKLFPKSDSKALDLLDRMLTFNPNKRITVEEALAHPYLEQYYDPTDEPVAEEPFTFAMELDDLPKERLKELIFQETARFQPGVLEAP
From the text: as §1

MAP3K5 = target: T12, MAP3K5 (Homo sapiens, UniProt Q99683); assay: KinaseProfiler MAP3K5
T12 construct: purchased Millipore, Inc. (KinaseProfiler service)
T12 sequence (Q99683 whole entry): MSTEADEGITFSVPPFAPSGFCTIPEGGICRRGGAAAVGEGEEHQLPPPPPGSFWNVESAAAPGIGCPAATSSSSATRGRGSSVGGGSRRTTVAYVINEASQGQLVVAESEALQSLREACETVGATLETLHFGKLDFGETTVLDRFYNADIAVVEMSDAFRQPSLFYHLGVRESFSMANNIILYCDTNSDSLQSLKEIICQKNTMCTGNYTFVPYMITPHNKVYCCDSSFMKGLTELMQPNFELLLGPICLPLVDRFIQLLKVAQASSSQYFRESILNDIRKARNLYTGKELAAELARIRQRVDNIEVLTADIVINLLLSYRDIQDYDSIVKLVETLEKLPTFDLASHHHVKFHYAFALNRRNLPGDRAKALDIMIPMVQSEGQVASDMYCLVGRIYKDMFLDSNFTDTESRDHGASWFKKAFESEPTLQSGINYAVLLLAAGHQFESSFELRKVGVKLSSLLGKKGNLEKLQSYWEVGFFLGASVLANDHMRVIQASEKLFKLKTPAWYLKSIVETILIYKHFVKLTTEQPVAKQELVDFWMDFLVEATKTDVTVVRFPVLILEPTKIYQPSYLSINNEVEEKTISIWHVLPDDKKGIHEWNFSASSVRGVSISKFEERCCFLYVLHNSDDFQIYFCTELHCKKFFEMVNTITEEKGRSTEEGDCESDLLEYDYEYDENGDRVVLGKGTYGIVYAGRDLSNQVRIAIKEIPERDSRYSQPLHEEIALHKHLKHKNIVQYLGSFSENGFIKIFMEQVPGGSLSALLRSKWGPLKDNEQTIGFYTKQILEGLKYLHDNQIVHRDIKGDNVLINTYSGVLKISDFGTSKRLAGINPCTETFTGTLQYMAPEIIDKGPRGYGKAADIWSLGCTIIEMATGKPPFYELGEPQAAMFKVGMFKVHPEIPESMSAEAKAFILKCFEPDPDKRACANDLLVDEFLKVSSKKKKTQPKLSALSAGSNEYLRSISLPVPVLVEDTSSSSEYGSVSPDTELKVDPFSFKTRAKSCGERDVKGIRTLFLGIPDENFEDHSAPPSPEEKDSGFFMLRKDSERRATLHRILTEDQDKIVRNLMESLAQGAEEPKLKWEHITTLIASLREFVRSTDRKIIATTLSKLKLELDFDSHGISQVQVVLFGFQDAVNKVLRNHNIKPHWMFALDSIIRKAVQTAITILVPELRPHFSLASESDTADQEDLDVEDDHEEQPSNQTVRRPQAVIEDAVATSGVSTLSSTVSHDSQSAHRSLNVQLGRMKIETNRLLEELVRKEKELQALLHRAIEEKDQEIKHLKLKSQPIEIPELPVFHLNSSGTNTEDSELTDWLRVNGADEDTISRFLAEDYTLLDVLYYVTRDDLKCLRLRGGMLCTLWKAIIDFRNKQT
From the text: as §1

MARK1 = target: T13, MARK1 (Homo sapiens, UniProt Q9P0L2); assay: KinaseProfiler MARK1
T13 construct: purchased Millipore, Inc. (KinaseProfiler service)
From the text: as §1

TAO3 = target: T14, TAO3 (Homo sapiens, UniProt Q9H2K8); assay: KinaseProfiler TAO3
T14 construct: purchased Millipore, Inc. (KinaseProfiler service)
T14 sequence (Q9H2K8 whole entry): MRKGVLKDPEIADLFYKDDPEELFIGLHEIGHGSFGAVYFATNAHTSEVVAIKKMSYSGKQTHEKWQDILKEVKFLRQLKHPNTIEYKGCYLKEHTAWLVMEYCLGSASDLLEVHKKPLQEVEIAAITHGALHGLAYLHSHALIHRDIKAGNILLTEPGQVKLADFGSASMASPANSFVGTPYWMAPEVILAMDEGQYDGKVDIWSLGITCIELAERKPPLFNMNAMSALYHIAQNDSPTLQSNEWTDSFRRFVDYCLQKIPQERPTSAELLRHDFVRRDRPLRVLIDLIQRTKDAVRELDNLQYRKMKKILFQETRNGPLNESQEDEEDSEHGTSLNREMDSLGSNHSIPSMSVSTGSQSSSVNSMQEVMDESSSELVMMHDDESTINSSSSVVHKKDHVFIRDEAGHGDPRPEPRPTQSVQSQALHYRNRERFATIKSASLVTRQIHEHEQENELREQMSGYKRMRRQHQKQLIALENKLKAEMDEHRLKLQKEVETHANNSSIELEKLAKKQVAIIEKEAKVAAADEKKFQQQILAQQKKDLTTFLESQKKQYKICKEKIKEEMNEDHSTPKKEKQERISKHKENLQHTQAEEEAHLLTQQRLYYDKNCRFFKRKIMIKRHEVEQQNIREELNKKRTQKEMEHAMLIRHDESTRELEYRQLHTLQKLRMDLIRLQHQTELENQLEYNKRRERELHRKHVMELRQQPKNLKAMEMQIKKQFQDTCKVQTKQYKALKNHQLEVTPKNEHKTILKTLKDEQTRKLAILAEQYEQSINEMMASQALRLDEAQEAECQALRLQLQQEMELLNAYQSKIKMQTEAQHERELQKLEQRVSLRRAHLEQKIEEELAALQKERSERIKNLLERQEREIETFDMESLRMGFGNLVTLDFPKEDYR
From the text: as §1

DAPK1 = target: T15, DAPK1 (Homo sapiens, UniProt P53355); assay: KinaseProfiler DAPK1
T15 construct: purchased Millipore, Inc. (KinaseProfiler service)
From the text: as §1

LIMK1 = target: T16, LIMK1 (Homo sapiens, UniProt P53667); assay: KinaseProfiler LIMK1
T16 construct: purchased Millipore, Inc. (KinaseProfiler service)
T16 sequence (P53667 whole entry): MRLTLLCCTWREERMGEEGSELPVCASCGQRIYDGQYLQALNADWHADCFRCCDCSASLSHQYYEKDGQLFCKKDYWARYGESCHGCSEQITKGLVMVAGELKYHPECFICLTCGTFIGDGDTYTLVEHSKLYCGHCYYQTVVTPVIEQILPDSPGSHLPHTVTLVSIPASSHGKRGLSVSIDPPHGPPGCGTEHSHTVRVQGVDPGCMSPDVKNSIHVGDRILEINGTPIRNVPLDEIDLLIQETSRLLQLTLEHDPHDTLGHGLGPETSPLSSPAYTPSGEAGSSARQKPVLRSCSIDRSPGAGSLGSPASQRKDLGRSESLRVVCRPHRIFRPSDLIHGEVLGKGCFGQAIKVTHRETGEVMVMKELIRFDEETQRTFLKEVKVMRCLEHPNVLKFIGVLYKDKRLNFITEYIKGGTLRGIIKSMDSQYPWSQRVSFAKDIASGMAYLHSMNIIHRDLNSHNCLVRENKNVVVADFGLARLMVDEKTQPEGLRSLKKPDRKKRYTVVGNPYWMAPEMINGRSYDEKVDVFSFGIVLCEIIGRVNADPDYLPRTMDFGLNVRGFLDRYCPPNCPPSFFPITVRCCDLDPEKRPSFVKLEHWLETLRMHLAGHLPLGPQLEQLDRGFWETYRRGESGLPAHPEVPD
From the text: as §1

CK1gamma2 = target: T17, CK1gamma2 (Homo sapiens, UniProt P78368); assay: KinaseProfiler CK1gamma2
T17 construct: purchased Millipore, Inc. (KinaseProfiler service)
From the text: as §1

NEK6 = target: T18, NEK6 (Homo sapiens, UniProt Q9HC98); assay: KinaseProfiler NEK6
T18 construct: purchased Millipore, Inc. (KinaseProfiler service)
From the text: as §1

NEK7 = target: T19, NEK7 (Homo sapiens, UniProt Q8TDX7); assay: KinaseProfiler NEK7
T19 construct: purchased Millipore, Inc. (KinaseProfiler service)
From the text: as §1

MELK = target: T20, MELK (Homo sapiens, UniProt Q14680); assay: KinaseProfiler MELK
T20 construct: purchased Millipore, Inc. (KinaseProfiler service)
From the text: as §1

Flt4 = target: T21, Flt4 (Homo sapiens, UniProt P35916); assay: KinaseProfiler Flt4
T21 construct: purchased Millipore, Inc. (KinaseProfiler service)
From the text: as §1

Flt3 = target: T22, Flt3 (Homo sapiens, UniProt P36888); assay: KinaseProfiler Flt3
T22 construct: purchased Millipore, Inc. (KinaseProfiler service)
T22 sequence (P36888 27-993): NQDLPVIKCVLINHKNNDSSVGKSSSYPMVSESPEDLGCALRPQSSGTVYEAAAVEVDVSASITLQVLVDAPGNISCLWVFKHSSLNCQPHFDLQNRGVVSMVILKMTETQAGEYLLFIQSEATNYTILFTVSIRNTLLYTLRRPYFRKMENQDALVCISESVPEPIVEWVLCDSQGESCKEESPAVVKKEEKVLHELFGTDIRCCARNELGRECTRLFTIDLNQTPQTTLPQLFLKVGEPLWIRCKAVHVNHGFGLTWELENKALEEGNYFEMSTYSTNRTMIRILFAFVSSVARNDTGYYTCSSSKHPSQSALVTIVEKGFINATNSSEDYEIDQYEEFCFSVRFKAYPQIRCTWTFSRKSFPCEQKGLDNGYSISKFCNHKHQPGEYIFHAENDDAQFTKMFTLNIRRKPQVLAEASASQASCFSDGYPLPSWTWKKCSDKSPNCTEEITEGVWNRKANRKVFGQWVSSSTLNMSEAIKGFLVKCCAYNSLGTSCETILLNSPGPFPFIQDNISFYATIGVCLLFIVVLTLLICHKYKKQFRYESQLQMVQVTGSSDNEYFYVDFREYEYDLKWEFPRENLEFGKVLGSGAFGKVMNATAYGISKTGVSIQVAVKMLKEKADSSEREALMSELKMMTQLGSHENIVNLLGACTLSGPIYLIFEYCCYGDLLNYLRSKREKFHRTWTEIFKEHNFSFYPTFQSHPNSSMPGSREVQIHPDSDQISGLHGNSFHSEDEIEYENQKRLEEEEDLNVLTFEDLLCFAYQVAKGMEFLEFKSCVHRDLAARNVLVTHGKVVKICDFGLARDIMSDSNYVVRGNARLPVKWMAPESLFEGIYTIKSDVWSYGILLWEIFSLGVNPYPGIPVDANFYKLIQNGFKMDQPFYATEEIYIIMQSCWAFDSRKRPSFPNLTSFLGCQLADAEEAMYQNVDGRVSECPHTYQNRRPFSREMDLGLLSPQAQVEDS
From the text: as §1

VRK2 = target: T23, VRK2 (Homo sapiens, UniProt Q86Y07); assay: KinaseProfiler VRK2
T23 construct: purchased Millipore, Inc. (KinaseProfiler service)
From the text: as §1

Abl-P = target: T24, Abl-P (Homo sapiens, UniProt P00519); assay: KinaseProfiler Abl-P
T24 construct: purchased Millipore (KinaseProfiler service)
From the text: as §1

PKCeta = target: T25, PKCeta (Homo sapiens, UniProt P24723); assay: KinaseProfiler PKCeta
T25 construct: purchased Millipore, Inc. (KinaseProfiler service)
From the text: as §1

EphB3 = target: T26, EphB3 (Homo sapiens, UniProt P54753); assay: KinaseProfiler EphB3
T26 construct: purchased Millipore, Inc. (KinaseProfiler service)
From the text: as §1

MYLK = target: T27, MYLK (Homo sapiens, UniProt Q15746); assay: KinaseProfiler MYLK
T27 construct: purchased Millipore, Inc. (KinaseProfiler service)
From the text: as §1

CDK6/cyclinD3 = target: T28, CDK6/cyclinD3 (Homo sapiens, UniProt Q00534); assay: KinaseProfiler CDK6/cyclinD3
T28 construct: purchased Millipore, Inc. (KinaseProfiler service)
From the text: as §1

JAK2 = target: T29, JAK2 (Homo sapiens, UniProt O60674); assay: KinaseProfiler JAK2
T29 construct: purchased Millipore, Inc. (KinaseProfiler service)
From the text: as §1

DDR2 = target: T30, DDR2 (Homo sapiens, UniProt Q16832); assay: KinaseProfiler DDR2
T30 construct: purchased Millipore, Inc. (KinaseProfiler service)
From the text: as §1

SRC = target: T31, SRC (Homo sapiens, UniProt P12931); assay: KinaseProfiler SRC
T31 construct: purchased Millipore, Inc. (KinaseProfiler service)
From the text: as §1

LOK = target: T32, LOK (Homo sapiens, UniProt O94804); assay: KinaseProfiler LOK
T32 construct: purchased Millipore, Inc. (KinaseProfiler service)
From the text: as §1

IRAK4 = target: T33, IRAK4 (Homo sapiens, UniProt Q9NWZ3); assay: KinaseProfiler IRAK4
T33 construct: purchased Millipore, Inc. (KinaseProfiler service)
From the text: as §1

ULK2 = target: T34, ULK2 (Homo sapiens, UniProt Q8IYT8); assay: KinaseProfiler ULK2
T34 construct: purchased Millipore, Inc. (KinaseProfiler service)
From the text: as §1

CK2alpha2 = target: T35, CK2alpha2 (Homo sapiens, UniProt P19784); assay: KinaseProfiler CK2alpha2
T35 construct: purchased Millipore, Inc. (KinaseProfiler service)
From the text: as §1

mTOR = target: T36, mTOR (Homo sapiens, UniProt P42345); assay: KinaseProfiler mTOR
T36 construct: purchased Millipore, Inc. (KinaseProfiler service)
From the text: as §1

PhKgamma2 = target: T37, PhKgamma2 (Homo sapiens, UniProt P15735); assay: KinaseProfiler PhKgamma2
T37 construct: purchased Millipore, Inc. (KinaseProfiler service)
From the text: as §1

FAK2 = target: T38, FAK2 (Homo sapiens, UniProt Q14289); assay: KinaseProfiler FAK2
T38 construct: purchased Millipore, Inc. (KinaseProfiler service)
From the text: as §1

CAMK4 = target: T39, CAMK4 (Homo sapiens, UniProt Q16566); assay: KinaseProfiler CAMK4
T39 construct: purchased Millipore (KinaseProfiler service)
From the text: as §1

HIPK2 = target: T40, HIPK2 (Homo sapiens, UniProt Q9H2X6); assay: KinaseProfiler HIPK2
T40 construct: purchased Millipore, Inc. (KinaseProfiler service)
From the text: as §1

Ret = target: T41, Ret (Homo sapiens, UniProt P07949); assay: KinaseProfiler Ret
T41 construct: purchased Millipore, Inc. (KinaseProfiler service)
From the text: as §1

MST3 = target: T42, MST3 (Homo sapiens, UniProt Q9Y6E0); assay: KinaseProfiler MST3
T42 construct: purchased Millipore, Inc. (KinaseProfiler service)
From the text: as §1

BrSK1 = target: T43, BrSK1 (Homo sapiens, UniProt Q8TDC3); assay: KinaseProfiler BrSK1
T43 construct: purchased Millipore (KinaseProfiler service)
From the text: as §1

Cc1c(-c2cnn(C)c2)nn(-c2ccccc2)c1NC(=O)Nc1cc(C(F)(F)F)nn1-c1ccccc1 [Example 3, 1-(1′,4-dimethyl-1-phenyl-1H,1′H-[3,4′-bipyrazol]-5-yl)-3-(1-phenyl-3-(trifluoromethyl)-1H-pyrazol-5-yl)urea]
Avg POC (TEC Activated): 144.5 POC
Avg POC (Ron): 90.5 POC
Avg POC (MKK7beta): 143.5 POC
Avg POC (SRPK2): 112.5 POC
Avg POC (MAPKAP-K5): 108.5 POC
Avg POC (CDK3/cyclinE): 103 POC
Avg POC (eEF-2K): 148.5 POC
Avg POC (GSK3beta): 195 POC
Avg POC (Plk3): 115 POC
Avg POC (CK2): 96.5 POC
Avg POC (ERK1): 111.5 POC
Avg POC (MAP3K5): 102 POC
Avg POC (MARK1): 112 POC
Avg POC (TAO3): 94 POC
Avg POC (DAPK1): 137.5 POC
Avg POC (LIMK1): 92 POC
Avg POC (CK1gamma2): 109 POC
Avg POC (NEK6): 125 POC
Avg POC (NEK7): 118 POC
Avg POC (MELK): 115 POC
Avg POC (Flt4): 80.5 POC
Avg POC (Flt3): 71 POC
Avg POC (VRK2): 96.5 POC
Avg POC (Abl-P): 154.5 POC
Avg POC (PKCeta): 94.5 POC
Avg POC (EphB3): 63 POC
Avg POC (MYLK): 122 POC
Avg POC (CDK6/cyclinD3): 107.5 POC
Avg POC (JAK2): 136.5 POC
Avg POC (DDR2): 98 POC
Avg POC (SRC): 102.5 POC
Avg POC (LOK): 97.5 POC
Avg POC (IRAK4): 131.5 POC
Avg POC (ULK2): 98 POC
Avg POC (CK2alpha2): 102.5 POC
Avg POC (mTOR): 78.5 POC
Avg POC (PhKgamma2): 115.5 POC
Avg POC (FAK2): 103.5 POC
Avg POC (CAMK4): 147.5 POC
Avg POC (HIPK2): 101.5 POC
Avg POC (Ret): 89.5 POC
Avg POC (MST3): 146.5 POC
Avg POC (BrSK1): 127 POC
